# In PubChem BioAssay (NCI):
#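 Following 48 hours of exposure in 96-well plates, responses at five concentrations were used to interpolate endpoints linearly. TGI is the concentration that stops growth completely.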 Where a SMILES comes first, the peptide text is derived from it. [ ]: non-standard residue; d: D form. The star is where a group is joined. hSer = N[CH](CCO)C(=O)O; Boc = CC(C)(C)OC(=O)*
# What was measured:
# Test in all cases: growth of human tumour cells (NCI), 48 h
# OVCAR-5 ovarian = test system: OVCAR-5 ovarian
# A498 renal = test system: A498 renal
# M14 melanoma = test system: M14 melanoma
# DU-145 prostate = test system: DU-145 prostate
# LOX IMVI melanoma = test system: LOX IMVI melanoma
# BT-549 breast = test system: BT-549 breast
# SNB-19 CNS = test system: SNB-19 CNS
# SK-MEL-2 melanoma = test system: SK-MEL-2 melanoma
# A549 NSCLC = test system: A549 NSCLC
# UACC-62 melanoma = test system: UACC-62 melanoma
# KM12 colon = test system: KM12 colon
# U251 CNS = test system: U251 CNS
# HCT-116 colon = test system: HCT-116 colon
# MCF7 breast = test system: MCF7 breast
# SK-MEL-5 melanoma = test system: SK-MEL-5 melanoma
# MDA-MB-435 = test system: MDA-MB-435
# RPMI-8226 leukemia = test system: RPMI-8226 leukemia
# TK-10 renal = test system: TK-10 renal
# T-47D breast = test system: T-47D breast
# UACC-257 melanoma = test system: UACC-257 melanoma
# K-562 leukemia = test system: K-562 leukemia
# HCC-2998 colon = test system: HCC-2998 colon
# SN12C renal = test system: SN12C renal
# HCT-15 colon = test system: HCT-15 colon
# MDA-N = test system: MDA-N
# NCI-H23 lung = test system: NCI-H23 lung
# SF-295 CNS = test system: SF-295 CNS
# PC-3 prostate = test system: PC-3 prostate
# SR leukemia = test system: SR leukemia
# NCI-H460 lung = test system: NCI-H460 lung
# UO-31 renal = test system: UO-31 renal
# OVCAR-4 ovarian = test system: OVCAR-4 ovarian
# NCI/ADR-RES ovarian = test system: NCI/ADR-RES ovarian
# SF-539 CNS = test system: SF-539 CNS
# NCI-H226 lung = test system: NCI-H226 lung
# 786-0 renal = test system: 786-0 renal
# COLO 205 colon = test system: COLO 205 colon
# HT29 colon = test system: HT29 colon
# MDA-MB-231 breast = test system: MDA-MB-231 breast
# HOP-62 NSCLC = test system: HOP-62 NSCLC
# ACHN renal = test system: ACHN renal
# NCI-H522 lung = test system: NCI-H522 lung
# OVCAR-3 ovarian = test system: OVCAR-3 ovarian
# SNB-75 CNS = test system: SNB-75 CNS
# SK-OV-3 ovarian = test system: SK-OV-3 ovarian
# RXF 393 renal = test system: RXF 393 renal
# EKVX NSCLC = test system: EKVX NSCLC
# OVCAR-8 ovarian = test system: OVCAR-8 ovarian
# HS 578T breast = test system: HS 578T breast
# SF-268 CNS = test system: SF-268 CNS
# IGROV1 ovarian = test system: IGROV1 ovarian
# HOP-92 NSCLC = test system: HOP-92 NSCLC
# MOLT-4 leukemia = test system: MOLT-4 leukemia
# SK-MEL-28 melanoma = test system: SK-MEL-28 melanoma
# MALME-3M melanoma = test system: MALME-3M melanoma
# CAKI-1 renal = test system: CAKI-1 renal
# SW-620 colon = test system: SW-620 colon
# CCRF-CEM leukemia = test system: CCRF-CEM leukemia
# HL-60(TB) leukemia = test system: HL-60(TB) leukemia
compound,measurement,setting,value
COc1ccc(CN2C(=O)CCC/C=C\[C@H]2CI)cc1,TGI,OVCAR-5 ovarian,24.5 µM
same,TGI,A498 renal,25 µM
same,TGI,M14 melanoma,22.6 µM
same,TGI,DU-145 prostate,26 µM
same,TGI,LOX IMVI melanoma,34 µM
same,TGI,BT-549 breast,33.7 µM
same,TGI,SNB-19 CNS,25.9 µM
same,TGI,SK-MEL-2 melanoma,23 µM
same,TGI,A549 NSCLC,21.5 µM
same,TGI,UACC-62 melanoma,22.6 µM
same,TGI,KM12 colon,23 µM
same,TGI,U251 CNS,26.5 µM
same,TGI,HCT-116 colon,24 µM
same,TGI,MCF7 breast,22.5 µM
same,TGI,SK-MEL-5 melanoma,25.1 µM
same,TGI,MDA-MB-435,25.2 µM
same,TGI,RPMI-8226 leukemia,31.2 µM
same,TGI,TK-10 renal,25 µM
same,TGI,T-47D breast,6.69 µM
same,TGI,UACC-257 melanoma,21.7 µM
same,TGI,K-562 leukemia,> 100 µM
same,TGI,HCC-2998 colon,23.8 µM
same,TGI,SN12C renal,27 µM
same,TGI,HCT-15 colon,24.9 µM
same,TGI,MDA-N,25.8 µM
same,TGI,NCI-H23 lung,28.7 µM
same,TGI,SF-295 CNS,26.3 µM
same,TGI,PC-3 prostate,20.7 µM
same,TGI,SR leukemia,> 100 µM
same,TGI,NCI-H460 lung,25.7 µM
same,TGI,UO-31 renal,23.8 µM
same,TGI,OVCAR-4 ovarian,22.8 µM
same,TGI,NCI/ADR-RES ovarian,28.2 µM
same,TGI,SF-539 CNS,26.4 µM
same,TGI,NCI-H226 lung,25.5 µM
same,TGI,786-0 renal,27 µM
same,TGI,COLO 205 colon,26.9 µM
same,TGI,HT29 colon,21.5 µM
same,TGI,MDA-MB-231 breast,23 µM
same,TGI,HOP-62 NSCLC,31.1 µM
same,TGI,ACHN renal,27.3 µM
same,TGI,NCI-H522 lung,26.5 µM
same,TGI,OVCAR-3 ovarian,23.7 µM
same,TGI,SNB-75 CNS,17.5 µM
same,TGI,SK-OV-3 ovarian,30 µM
same,TGI,RXF 393 renal,17.2 µM
same,TGI,EKVX NSCLC,22.5 µM
same,TGI,OVCAR-8 ovarian,27.5 µM
same,TGI,HS 578T breast,33.2 µM
same,TGI,SF-268 CNS,27.2 µM
same,TGI,IGROV1 ovarian,29 µM
same,TGI,HOP-92 NSCLC,25.3 µM
same,TGI,MOLT-4 leukemia,25.6 µM
same,TGI,SK-MEL-28 melanoma,25.2 µM
same,TGI,MALME-3M melanoma,24.4 µM
same,TGI,CAKI-1 renal,21.9 µM
same,TGI,SW-620 colon,23.8 µM
O=C1N[C@H]2c3c(Cl)sc(Cl)c3C(=O)[C@H]2O1,TGI,OVCAR-5 ovarian,51.1 µM
same,TGI,A498 renal,43.2 µM
same,TGI,M14 melanoma,52.6 µM
same,TGI,DU-145 prostate,> 54.6 µM
same,TGI,LOX IMVI melanoma,13.9 µM
same,TGI,BT-549 breast,45 µM
same,TGI,SNB-19 CNS,46.5 µM
same,TGI,SK-MEL-2 melanoma,> 59.9 µM
same,TGI,A549 NSCLC,> 100 µM
same,TGI,UACC-62 melanoma,36.4 µM
same,TGI,KM12 colon,> 100 µM
same,TGI,U251 CNS,15.7 µM
same,TGI,HCT-116 colon,> 35.6 µM
same,TGI,MCF7 breast,> 100 µM
same,TGI,SK-MEL-5 melanoma,> 69 µM
same,TGI,MDA-MB-435,36 µM
same,TGI,RPMI-8226 leukemia,> 80.8 µM
same,TGI,TK-10 renal,> 100 µM
same,TGI,T-47D breast,> 64.8 µM
same,TGI,UACC-257 melanoma,36.2 µM
same,TGI,K-562 leukemia,> 30.7 µM
same,TGI,HCC-2998 colon,19.9 µM
same,TGI,SN12C renal,> 47.6 µM
same,TGI,HCT-15 colon,5.51 µM
same,TGI,MDA-N,> 57.5 µM
same,TGI,NCI-H23 lung,29 µM
same,TGI,SF-295 CNS,34.6 µM
same,TGI,PC-3 prostate,> 62.5 µM
same,TGI,SR leukemia,5.81 µM
same,TGI,CCRF-CEM leukemia,> 21.2 µM
same,TGI,NCI-H460 lung,37 µM
same,TGI,UO-31 renal,38.3 µM
same,TGI,OVCAR-4 ovarian,37.5 µM
same,TGI,NCI/ADR-RES ovarian,37.2 µM
same,TGI,SF-539 CNS,39.9 µM
same,TGI,NCI-H226 lung,42.3 µM
same,TGI,786-0 renal,> 54.2 µM
same,TGI,COLO 205 colon,> 51 µM
same,TGI,HT29 colon,13.8 µM
same,TGI,MDA-MB-231 breast,> 58.2 µM
same,TGI,HOP-62 NSCLC,42 µM
same,TGI,ACHN renal,35.6 µM
same,TGI,NCI-H522 lung,3.43 µM
same,TGI,OVCAR-3 ovarian,36.8 µM
same,TGI,SNB-75 CNS,34.9 µM
same,TGI,SK-OV-3 ovarian,52.1 µM
same,TGI,RXF 393 renal,> 79.8 µM
same,TGI,EKVX NSCLC,27.9 µM
same,TGI,OVCAR-8 ovarian,12.2 µM
same,TGI,HL-60(TB) leukemia,4.98 µM
same,TGI,HS 578T breast,43.5 µM
same,TGI,SF-268 CNS,37 µM
same,TGI,IGROV1 ovarian,14.4 µM
same,TGI,HOP-92 NSCLC,41.6 µM
same,TGI,MOLT-4 leukemia,5.11 µM
same,TGI,SK-MEL-28 melanoma,24.7 µM
same,TGI,MALME-3M melanoma,24.1 µM
same,TGI,CAKI-1 renal,49.5 µM
same,TGI,SW-620 colon,7.71 µM
COCCC(NC(=O)C(CC(C)C)NC(=O)OC(C)(C)C)C(N)=O (stereo not drawn) (Boc-Leu-[hSer](Me)-NH2; configuration not given here),TGI,A498 renal,> 100 µM
same,TGI,M14 melanoma,> 100 µM
same,TGI,DU-145 prostate,> 100 µM
same,TGI,LOX IMVI melanoma,> 100 µM
same,TGI,BT-549 breast,> 100 µM
same,TGI,SNB-19 CNS,> 100 µM
same,TGI,SK-MEL-2 melanoma,> 100 µM
same,TGI,A549 NSCLC,> 100 µM
same,TGI,UACC-62 melanoma,> 100 µM
same,TGI,KM12 colon,> 100 µM
same,TGI,U251 CNS,> 100 µM
same,TGI,HCT-116 colon,> 100 µM
same,TGI,MCF7 breast,> 100 µM
same,TGI,SK-MEL-5 melanoma,> 100 µM
same,TGI,MDA-MB-435,> 100 µM
same,TGI,RPMI-8226 leukemia,> 100 µM
same,TGI,TK-10 renal,> 100 µM
same,TGI,T-47D breast,> 100 µM
same,TGI,UACC-257 melanoma,> 100 µM
same,TGI,K-562 leukemia,> 100 µM
same,TGI,HCC-2998 colon,> 100 µM
same,TGI,SN12C renal,> 100 µM
same,TGI,HCT-15 colon,> 100 µM
same,TGI,MDA-N,> 100 µM
same,TGI,SF-295 CNS,> 100 µM
same,TGI,PC-3 prostate,> 100 µM
same,TGI,SR leukemia,> 100 µM
same,TGI,CCRF-CEM leukemia,> 100 µM
same,TGI,NCI-H460 lung,> 100 µM
same,TGI,UO-31 renal,> 100 µM
same,TGI,OVCAR-4 ovarian,> 100 µM
same,TGI,NCI/ADR-RES ovarian,> 100 µM
same,TGI,SF-539 CNS,> 100 µM
same,TGI,NCI-H226 lung,> 100 µM
same,TGI,786-0 renal,> 100 µM
same,TGI,COLO 205 colon,> 100 µM
same,TGI,HT29 colon,> 100 µM
same,TGI,MDA-MB-231 breast,> 100 µM
same,TGI,HOP-62 NSCLC,> 100 µM
same,TGI,ACHN renal,> 100 µM
same,TGI,NCI-H522 lung,> 100 µM
same,TGI,OVCAR-3 ovarian,> 100 µM
same,TGI,SNB-75 CNS,> 100 µM
same,TGI,SK-OV-3 ovarian,> 100 µM
same,TGI,RXF 393 renal,> 100 µM
same,TGI,EKVX NSCLC,> 100 µM
same,TGI,OVCAR-8 ovarian,> 100 µM
same,TGI,HL-60(TB) leukemia,> 100 µM
same,TGI,HS 578T breast,> 100 µM
same,TGI,SF-268 CNS,> 100 µM
same,TGI,IGROV1 ovarian,> 100 µM
same,TGI,HOP-92 NSCLC,> 100 µM
same,TGI,MOLT-4 leukemia,> 100 µM
same,TGI,SK-MEL-28 melanoma,> 100 µM
same,TGI,MALME-3M melanoma,> 100 µM
same,TGI,CAKI-1 renal,> 100 µM
same,TGI,SW-620 colon,> 100 µM
